# Measured values from US6274715A, “Tricyclic erythromycin derivatives” (priority 1997, dated 2001).
# Assays:
# Type in all cases: cell-based
# [1] = tested on: M[…] ATCC 4698; assay: In vitro antibacterial activity, MIC, BHI agar dilution; details: M. luteus ATCC 4698, unit assumed
# Outline: (§1)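 BHI agar dilution, 12 plates; inoculum 1:100 (1:10 slow-growing strains), Steers replicator; 35-37° C, 20-24 h. MIC = lowest conc. with no growth/slight haze/sparse colonies vs growth control, visual read. Erythromycin A reference plate.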
# [2] = tested on: STR[…] 508; assay: as above; details: S. agalactiae CMX 508, unit assumed
# Outline: as §1
# [3] = tested on: M[…] ATCC 9341; assay: as above; details: M. luteus ATCC 9341, unit assumed
# Outline: as §1
# [4] = tested on: EN[…] ATCC 8043; assay: as above; details: E. faecium ATCC 8043, unit assumed
# Outline: as §1
# [5] = tested on: STAPHYLOCOCCUS AUREUS CMX 553; assay: as above; details: S. aureus CMX 553, unit assumed
# [6] = tested on: PSEUDOMONAS AERUGINOSA DPHD-5263; assay: as above; details: P. aeruginosa DPHD-5263, unit assumed
# [7] = tested on: ESCHERICHIA COLI DC-2; assay: as above; details: E. coli DC-2, unit assumed
# [8] = tested on: MYCOBACTERIUM SMEGMATIS ATCC 114; assay: as above; details: M. smegmatis ATCC 114, unit assumed
# [9] = tested on: STREPTOCOCCUS PYOGENES 930; assay: as above; details: S. pyogenes 930, unit assumed
# [10] = tested on: PSEUDOMONAS AERUGINOSA BMH10; assay: as above; details: P. aeruginosa BMH10, unit assumed
# [11] = tested on: PSEUDOMONAS CEPACIA 296I; assay: as above; details: P. cepacia 296I, unit assumed
# [12] = tested on: STAPHYLOCOCCUS AUREUS NCTC10649M; assay: as above; details: S. aureus NCTC10649M, unit assumed
# [13] = tested on: STREPTOCOCCUS BOVIS A-5169; assay: as above; details: S. bovis A-5169, unit assumed
# [14] = tested on: PSEUDOMONAS AERUGINOSA DPHD-2862; assay: as above; details: P. aeruginosa DPHD-2862, unit assumed
# [15] = tested on: STAPHYLOCOCCUS AUREUS A5177; assay: as above; details: S. aureus A5177, unit assumed
# [16] = tested on: STAPHYLOCOCCUS EPIDERMIDIS 3519; details: S. epidermidis 3519; BHI agar; unit assumed
# [17] = tested on: KLEBSIELLA PNEUMONIAE ATCC 8045; assay: In vitro antibacterial activity, MIC, BHI agar dilution; details: K. pneumoniae ATCC 8045, unit assumed
# [18] = tested on: STAPHYLOCOCCUS AUREUS ATCC 6538P; assay: as above; details: S. aureus ATCC 6538P, 35-37° C., 20 to 24 hours, unit assumed
# [19] = tested on: CANDIDA ALBICANS CCH 442; assay: as above; details: C. albicans CCH 442, unit assumed
# [20] = tested on: PSEUDOMONAS AERUGINOSA K799/61; assay: as above; details: P. aeruginosa K799/61, unit assumed
# [21] = tested on: PROVIDENCIA STUARTII CMX 640; details: P. stuartii CMX 640; BHI agar; unit assumed
# [22] = tested on: ESCHERICHIA COLI KNK 437; details: E. coli KNK 437; BHI agar; unit assumed
# [23] = tested on: PSEUDOMONAS AERUGINOSA 5007; assay: In vitro antibacterial activity, MIC, BHI agar dilution; details: P. aeruginosa 5007, unit assumed
# [24] = tested on: ENTEROBACTER AEROGENES ATCC 13048; assay: as above; details: E. aerogenes ATCC 13048, unit assumed
# [25] = tested on: PSEUDOMONAS AERUGINOSA K799/WT; assay: as above; details: P. aeruginosa K799/WT, unit assumed
# [26] = tested on: STAPHYLOCOCCUS AUREUS A-5278; assay: as above; details: S. aureus A-5278, unit assumed
# [27] = tested on: STREPTOCOCCUS PYOGENES EES61; assay: as above; details: S. pyogenes EES61, unit assumed
# [28] = tested on: STAPHYLOCOCCUS AUREUS 1775; assay: as above; details: S. aureus 1775, unit assumed
# [29] = tested on: STREPTOCOCCUS PYOGENES PIU 2548; assay: as above; details: S. pyogenes PIU 2548, unit assumed
# [30] = tested on: ESCHERICHIA COLI H560; assay: as above; details: E. coli H560, unit assumed
# [31] = tested on: ESCHERICHIA COLI JUHL; details: E. coli JUHL; BHI agar; unit assumed
# [32] = tested on: ESCHERICHIA COLI SS; assay: In vitro antibacterial activity, MIC, BHI agar dilution; details: E. coli SS, unit assumed
# [33] = tested on: STAPHYLOCOCCUS AUREUS CMX 642A; assay: as above; details: S. aureus CMX 642A, unit assumed
Structure (SMILES),MIC [1] [µg/mL],MIC [2] [µg/mL],MIC [3] [µg/mL],MIC [4] [µg/mL],MIC [5] [µg/mL],MIC [6] [µg/mL],MIC [7] [µg/mL],MIC [8] [µg/mL],MIC [9] [µg/mL],MIC [10] [µg/mL],MIC [11] [µg/mL],MIC [12] [µg/mL],MIC [13] [µg/mL],MIC [14] [µg/mL],MIC [15] [µg/mL],MIC [16] [µg/mL],MIC [17] [µg/mL],MIC [18] [µg/mL],MIC [19] [µg/mL],MIC [20] [µg/mL],also measured
CC[C@H]1OC(=O)[C@H](C)C(=O)[C@H](C)[C@@H](O[C@@H]2O[C@H](C)C[C@H](N(C)C)[C@H]2O)[C@](C)(OC)C[C@@H](C)C2=NC3CN(CCc4ccc([N+](=O)[O-])cc4)CC3N3C(=O)O[C@@]1(C)[C@H]3[C@H]2C (stereo partly drawn) [Example 118],0.2,0.02,0.05,0.2,0.39,> 100,> 100,0.78,> 100,> 100,> 100,0.39,≤ 0.005,> 100,0.2,0.39,> 100,0.39,> 100,0.78,MIC [21]: > 100 µg/mL; MIC [22]: > 100 µg/mL; MIC [23]: > 100 µg/mL; MIC [24]: > 100 µg/mL; MIC [25]: > 100 µg/mL; MIC [26]: > 100 µg/mL; MIC [27]: 0.05 µg/mL; MIC [28]: > 100 µg/mL; MIC [29]: 0.78 µg/mL; MIC [30]: 100 µg/mL; MIC [31]: 100 µg/mL; MIC [32]: 0.78 µg/mL; MIC [33]: 0.39 µg/mL
CC[C@H]1OC(=O)[C@H](C)C(=O)[C@H](C)[C@@H](O[C@@H]2O[C@H](C)C[C@H](N(C)C)[C@H]2O)[C@](C)(OC)C[C@@H](C)C2=NC3CN(C)CC3N3C(=O)O[C@@]1(C)[C@H]3[C@H]2C (stereo partly drawn) [Example 114],1.56,0.1,0.1,0.2,1.56,> 100,100,6.2,> 100,> 100,> 100,1.56,0.02,> 100,0.78,1.56,> 100,1.56,> 100,6.2,MIC [21]: > 100 µg/mL; MIC [22]: 100 µg/mL; MIC [23]: > 100 µg/mL; MIC [24]: 100 µg/mL; MIC [25]: > 100 µg/mL; MIC [26]: > 100 µg/mL; MIC [27]: 0.05 µg/mL; MIC [28]: > 100 µg/mL; MIC [29]: 1.56 µg/mL; MIC [30]: 50 µg/mL; MIC [31]: 100 µg/mL; MIC [32]: 0.78 µg/mL; MIC [33]: 1.56 µg/mL
CC[C@H]1OC(=O)[C@H](C)C(=O)[C@H](C)[C@@H](O[C@@H]2O[C@H](C)C[C@H](N(C)C)[C@H]2O)[C@](C)(OC)C[C@@H](C)C2=NCC(CN(C)Cc3ccccc3)N3C(=O)O[C@@]1(C)[C@H]3[C@H]2C (stereo partly drawn) [Example 132],0.2,0.02,0.05,0.1,0.39,> 100,100,0.78,50,> 100,> 100,0.39,0.01,> 100,0.39,0.39,> 100,0.39,> 100,1.56,MIC [21]: > 100 µg/mL; MIC [22]: > 100 µg/mL; MIC [23]: > 100 µg/mL; MIC [24]: > 100 µg/mL; MIC [25]: 100 µg/mL; MIC [26]: 100 µg/mL; MIC [27]: 0.02 µg/mL; MIC [28]: 100 µg/mL; MIC [29]: 0.78 µg/mL; MIC [30]: 50 µg/mL; MIC [31]: 100 µg/mL; MIC [32]: 0.78 µg/mL; MIC [33]: 0.39 µg/mL
